Data taken from PubChem BioAssay AID330 (DTP/NCI, 2004).
Where “and” joins values, the source holds several entries; their conditions need not be identical. Identical values can stand only once. Toxic doses and inconclusive results are not listed.

System: P388 leukemia ip, CD2F1 mice, survival T/C
Assay: NCI In Vivo Anticancer Drug Screen. Data for tumor model P388 Leukemia (intraperitoneal) in CD2F1 (CDF1) mice
Settings: endpoint: median survival time, higher = longer survival
In short: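 Mice carrying the transplanted tumor received test compound or vehicle. Survival was recorded in each group, and the value is the treated-group measurement divided by that of the vehicle-treated control group.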

[1] = dose: 50.0 mg/kg/injection, schedule: Q01DX005 (ip), vehicle: saline with Tween-80
[2] = dose: 100.0 mg/kg/injection, schedule: Q01DX005 (ip), vehicle: saline with Tween-80
[3] = dose: 12.5 mg/kg/injection, schedule: Q01DX005 (ip), vehicle: saline with Tween-80
[4] = dose: 25.0 mg/kg/injection, schedule: Q01DX005 (ip), vehicle: saline with Tween-80

CN(C)C(=O)C1OC1(C)c1ccccc1 (stereo not drawn)
T/C (dose: 100.0 mg/kg/injection, schedule: Q04DX003 (ip), vehicle: Klucel (hydroxypropylcellulose) (HPC)): 103 % of control | T/C (dose: 200.0 mg/kg/injection, schedule: Q04DX003 (ip), vehicle: Klucel (hydroxypropylcellulose) (HPC)): 108 % of control | T/C (dose: 400.0 mg/kg/injection, schedule: Q04DX003 (ip), vehicle: Klucel (hydroxypropylcellulose) (HPC)): 117 % of control

CCCCOC1OCN(CCC)CC1(C)C (stereo not drawn)
T/C (dose: 50.0 mg/kg/injection, schedule: Q01DX009 (ip), vehicle: saline with Tween-80): 111 % of control and 113 % of control | T/C (dose: 100.0 mg/kg/injection, schedule: Q01DX009 (ip), vehicle: saline with Tween-80): 122 % of control

CCCCCN(CCCCC)C(C)C(O)c1ccc2cc(Cl)c3ccccc3c2c1 (stereo not drawn)
T/C [1]: 99 % of control | T/C [2]: 101 % of control

Nc1nc2nc[nH]c(=O)c2[nH]1
T/C (dose: 6.25 mg/kg/injection, schedule: Q01DX005 (ip), vehicle: saline with Tween-80): 99 % of control | T/C [3]: 99 % of control | T/C [4]: 102 % of control and 106 % of control | T/C [1]: 102 % of control

CC(=O)c1c(O)c2ccccc2c2nc3ccccc3nc12
T/C (dose: 50.0 mg/kg/injection, schedule: Q01DX009 (ip), vehicle: saline): 96 % of control | T/C (dose: 100.0 mg/kg/injection, schedule: Q01DX009 (ip), vehicle: saline): 91 % of control | T/C (dose: 200.0 mg/kg/injection, schedule: Q01DX009 (ip), vehicle: saline): 91 % of control

Cn1nc(C#N)c(=O)[nH]c1=O
T/C [3]: 99 % of control | T/C [4]: 97 % of control | T/C [1]: 99 % of control and 100 % of control

O=S(=O)(O)O.[NH-]C1CCCC1[NH-].[Pt+2] (stereo not drawn)
T/C (dose: 6.25 mg/kg/injection, schedule: Q04DX002 (ip), vehicle: saline): 177 % of control and 195 % of control | T/C (dose: 12.5 mg/kg/injection, schedule: Q04DX002 (ip), vehicle: saline): 180 % of control and 202 % of control | T/C (dose: 12.5 mg/kg/injection, schedule: Q04DX002 (ip), vehicle: suspension in saline): 191 % of control | T/C (dose: 25.0 mg/kg/injection, schedule: Q04DX002 (ip), vehicle: saline): 198 % of control and 194 % of control

CC1(C(N)=O)CCSc2ccccc2C1=O (stereo not drawn)
T/C [1]: 95 % of control | T/C [2]: 92 % of control | T/C (dose: 200.0 mg/kg/injection, schedule: Q01DX005 (ip), vehicle: saline with Tween-80): 94 % of control

CC(C)=CCC(OC(=O)C=C(C)C)c1cc(O)c2c(O)ccc(O)c2c1O.[Co] (stereo not drawn)
T/C (dose: 100.0 mg/kg/injection, schedule: Q01DX001 (ip), vehicle: saline with Tween-80): 103 % of control | T/C (dose: 200.0 mg/kg/injection, schedule: Q01DX001 (ip), vehicle: saline with Tween-80): 101 % of control | T/C (dose: 400.0 mg/kg/injection, schedule: Q01DX001 (ip), vehicle: saline with Tween-80): 113 % of control

O=C([O-])c1c[n+]2c(cc1C(=O)O)-c1cc3c(cc1CC2)OCO3
T/C (dose: 0.63 mg/kg/injection, schedule: Q01DX009 (ip), vehicle: distilled water + Tween-80): 99 % of control | T/C (dose: 1.25 mg/kg/injection, schedule: Q01DX009 (ip), vehicle: distilled water + Tween-80): 94 % of control | T/C (dose: 2.5 mg/kg/injection, schedule: Q01DX009 (ip), vehicle: distilled water + Tween-80): 94 % of control | T/C (dose: 5.0 mg/kg/injection, schedule: Q01DX009 (ip), vehicle: distilled water + Tween-80): 94 % of control | T/C (dose: 10.0 mg/kg/injection, schedule: Q01DX009 (ip), vehicle: distilled water + Tween-80): 99 % of control | T/C (dose: 20.0 mg/kg/injection, schedule: Q01DX009 (ip), vehicle: distilled water + Tween-80): 100 % of control

CC12CCC(OC3CCCCO3)CC1=CCC1C2CCC2(C)C(O)/C(=N\O)CC12 (stereo not drawn)
T/C (dose: 100.0 mg/kg/injection, schedule: Q04DX002 (ip), vehicle: saline): 91 % of control | T/C (dose: 200.0 mg/kg/injection, schedule: Q04DX002 (ip), vehicle: saline): 94 % of control | T/C (dose: 400.0 mg/kg/injection, schedule: Q04DX002 (ip), vehicle: saline): 90 % of control

ClCCN(CCCl)c1ccc(N=Nc2cccc(Cl)c2Cl)cc1
T/C (dose: 150.0 mg/kg/injection, schedule: Q04DX003 (ip), vehicle: Klucel (hydroxypropylcellulose) (HPC)): 99 % of control | T/C (dose: 300.0 mg/kg/injection, schedule: Q04DX003 (ip), vehicle: Klucel (hydroxypropylcellulose) (HPC)): 95 % of control
